Assay results published in US8273724B2, “Melanoma antigens and their use in diagnostic and therapeutic methods” (The United States of America, as represented by the …, priority 1994, dated 2012).
Where two headings read alike, the source gives them in different places. Where a SMILES comes first, the peptide text is derived from it.

How the values were obtained:
[1] = test system: T2 cell lines preincubated with peptide; assay: Recognition of modified peptides by natural epitope (M9-2, G9-154, G9-209, G9-280) reactive T-cells, 51Cr release on peptide-pulsed T2 cells (Example 5); assay type: cell-based, human
Summary of the method: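 T2 target cells were pulsed with 1 ug/ml peptide for 2 h at 37° C., then washed. CTL recognition was measured by ^51Cr release cytotoxicity.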

[2] = test system: 624mel melanoma cell line; assay: Induction of peptide specific CTL from PBL, 51Cr release against melanoma cells (Example 5); assay type: cell-based, human; details: for recognition and lysis of original epitopes and melanoma tumor cells (624 mel) by PBL stimulated with the peptide, compared with natural epitopes: PBL stimulated with autologous PBMC pulsed with peptide; for % specific lysis by PBL stimulated with the peptide: target 624mel, E:T = 3D40:1
Experimental: (§1) Induction of peptide specific CTL PBMC were separated from peripheral blood of HLA-A2+ melanoma patients and normal donors by centrifugation on Ficoll-Hypaque gradients and used as fresh or cryopreserved samples. […] Two days later, 12 IU/ml interleukin 2 (IL-2) (Chiron Co., Emeryville, Calif.) were added to the cultures. Lymphocytes were then restimulated weekly as follows: responder cells were harvested, washed once and replated in 24-well plates at a concentration of 2.5×10^5 cells/ml in CM. Autologous PBMC were thawed, washed twice in PBS, resuspended at 5-8×10^6 cells/ml in CM and pulsed with 1 ug/ml peptide in 15-ml conical tubes (5 ml/tube) for 3 hours at 37° C. These PBMC (stimulators) were then irradiated at 3000 rads, washed once in PBS and added to the responder cells at responder:stimulator ratios ranging between 1:3 and 1:10. The next day, 12 IU/ml IL-2 were added to the cultures. The activity of these CTL was tested by cytotoxicity assays after at least 2 rounds (14 days) of peptide stimulation. To generate CTL from TIL cultures, the dissociated tumor suspension were cultured for 1-2 days in 10% FCS RPMI-1640 medium to allow tumor cell adherence. The lymphocytes, recovered from the non-adherent fraction, were used for the induction of peptide specific CTL as described above.
(§2) Assessment of antigen recognition by CTL. ^51Cr release cytotoxic assays were performed to detect the recognition of peptide and melanoma cells by CTL. To analyze peptide recognition, T2 cell lines were preincubated for 2 h at 37° C. with 1 ug/ml peptide, washed and used as target cells in a ^51Cr release cytotoxic assay. The melanoma lines 624mel was established in our laboratory (See Example 1).

T2 cells = assay: Induction of peptide specific CTL from PBL, 51Cr release against T2 cells with or without peptide (Example 5); assay type: cell-based, human; details: E:T = 3D40:1
Experimental: as §1, §2

HLA-A2.1 [3] = target: T1, HLA-A2.1 (Homo sapiens, UniProt P04439, D140Y/D185E/D98H/E176V/E277Q/G131W/G231S/I119V/I121R/I166T/I218V/L300P/L318F/N151K/N90K/P208A/P217A/Q86G/Q94H/R138H/R169H/T345S); assay: HLA-A2.1 binding assay of modified peptides, inhibition of radiolabeled Hbc 18-27 (Example 5)
HLA-A2.1 [4] = target: T1, HLA-A2.1; assay: Peptide binding assay to HLA-A2.1, competition with radiolabeled HBc18-27 (Example 4)
HLA-A2.1+ T2 cells = details: for TIL that recognize the peptide: cytotoxicity assays, T2 preincubated with peptide
[5] = test system: T2 cells preincubated with peptides; assay: IFN-γ / cytokine release by TIL incubated with T2 cells preincubated with peptides; assay type: cell-based, human; details: T2 cells preincubated with peptide; data not shown
[6] = after 4 stimulations (Table 20)
[7] = target T2 + G9-280-9V, after 4 stimulations
[8] = target T2 + G9-280, after 4 stimulations
[9] = target T2, after 4 stimulations (Table 20)
[10] = Exp. 1, peptide 1 ug/ml, TIL 620-1
[11] = Exp. 1, peptide 1 ug/ml, TIL 620-2
[12] = Exp. 1, peptide 1 ug/ml, TIL 660-1
[13] = Exp. 1, peptide 1 ug/ml, TIL 1143
[14] = Exp. 1, peptide 1 ug/ml, TIL 1200
[15] = Exp. 1, peptide 1 ug/ml, TIL 1235
[16] = Exp. 3, peptide 1 ug/ml, TIL 660-3
[17] = Exp. 3, peptide 1 ug/ml, TIL 1143
[18] = Exp. 3, peptide 1 ug/ml, TIL 1200
[19] = Exp. 3, peptide 1 ug/ml, TIL 1235

Row | SMILES | recognition by the original melanoma reactive T-cells [1] | recognition and lysis of original epitopes and melanoma tumor cells (624 mel) by PBL stimulated with the peptide, compared with natural epitopes [2] | binding affinity to HLA-A2.1 compared with the natural epitope (HLA-A2.1 [3]) | % specific lysis by PBL stimulated with the peptide [2, 6] [%] | % specific lysis by PBL stimulated with the peptide (T2 cells; [7]) [%] | % specific lysis by PBL stimulated with the peptide (T2 cells; [8]) [%] | % specific lysis by PBL stimulated with the peptide (T2 cells; [9]) [%] | % specific lysis at E:T = 40:1 (HLA-A2.1+ T2 cells; [10]) [%] | % specific lysis at E:T = 40:1 (HLA-A2.1+ T2 cells; [11]) [%] | % specific lysis at E:T = 40:1 (HLA-A2.1+ T2 cells; [12]) [%] | % specific lysis at E:T = 40:1 (HLA-A2.1+ T2 cells; [13]) [%] | % specific lysis at E:T = 40:1 (HLA-A2.1+ T2 cells; [14]) [%] | % specific lysis at E:T = 40:1 (HLA-A2.1+ T2 cells; [15]) [%] | % specific lysis at E:T = 40:1 (HLA-A2.1+ T2 cells; [16]) [%] | % specific lysis at E:T = 40:1 (HLA-A2.1+ T2 cells; [17]) [%] | % specific lysis at E:T = 40:1 (HLA-A2.1+ T2 cells; [18]) [%] | % specific lysis at E:T = 40:1 (HLA-A2.1+ T2 cells; [19]) [%] | TIL that recognize the peptide (HLA-A2.1+ T2 cells) | further results
1 | CC(C)C[C@H](NC(=O)[C@@H](N)Cc1ccccc1)C(=O)N[C@@H](CC(=O)O)C(=O)N[C@@H](CCC(N)=O)C(=O)N[C@H](C(=O)N1CCC[C@H]1C(=O)N[C@@H](Cc1ccccc1)C(=O)N[C@@H](CO)C(=O)N[C@H](C(=O)O)C(C)C)C(C)C [G9-209-1F2L] | recognized | better | higher binding affinity | – | – | – | – | – | – | – | – | – | – | – | – | – | – | – | Recognition by G9-209 reactive T-cell [1]: + (+, recognized); % specific lysis by PBL stimulated with the peptide ([2]; after 4 stimulations (Table 19)): 63%; % specific lysis by PBL stimulated with the peptide (T2 cells; target T2 + G9-209-1F2L, after 4 stimulations): 86%; % specific lysis by PBL stimulated with the peptide (T2 cells; target T2 + G9-209, after 4 stimulations): 85%; % specific lysis by PBL stimulated with the peptide (T2 cells; target T2, after 4 stimulations (Table 19)): 0%
2 | CC(C)C[C@H](NC(=O)[C@@H](N)Cc1ccc(O)cc1)C(=O)N[C@@H](CCC(=O)O)C(=O)N1CCC[C@H]1C(=O)NCC(=O)N1CCC[C@H]1C(=O)N[C@H](C(=O)N[C@H](C(=O)O)[C@@H](C)O)C(C)C [G9-280-9V] (H-YLEPGPVT-OH; N-terminus and C-terminus assumed) | recognized | better | higher binding affinity | 71 | 58 | 87 | 0 | – | – | – | – | – | – | – | – | – | – | – | Recognition by G9-280 reactive T-cell ([1]; 51Cr release, T2 cells preincubated with 1 ug/ml peptide): + (+, recognized)
3 | CC(C)C[C@H](NC(=O)[C@H](CCCNC(=N)N)NC(=O)[C@H](CC(C)C)NC(=O)[C@@H](NC(=O)[C@H](C)NC(=O)[C@@H](NC(=O)CNC(=O)[C@H](CC(=O)O)NC(=O)[C@H](CC(C)C)NC(=O)[C@@H](N)CC(C)C)[C@@H](C)O)[C@@H](C)O)C(=O)O [G10-4] | – | – | – | – | – | – | – | – | – | – | – | – | – | – | – | – | – | – | IC50 (HLA-A2.1 [4]): 483 nM
4 | CC(C)C[C@H](NC(=O)[C@@H](N)C(C)C)C(=O)N[C@@H](Cc1ccc(O)cc1)C(=O)N[C@@H](CCCNC(=N)N)C(=O)N[C@@H](Cc1ccc(O)cc1)C(=O)NCC(=O)N[C@@H](CO)C(=O)N[C@@H](Cc1ccccc1)C(=O)N[C@@H](CO)C(=O)N[C@H](C(=O)O)C(C)C [G10-5] (H-VLYRYGSFSV-OH; N-terminus and C-terminus assumed) | – | – | – | – | – | – | – | 2 | 7 | 2 | 1 | 7 | 0 | 14 | 2 | 6 | 5 | TIL660-3 also recognized | IC50 (HLA-A2.1 [4]; binding to HLA-A2.1): 13 nM; Ratio to Standard: binding affinity of the sample peptide to that of the standard peptide (HLA-A2.1 [4]; standard peptide 50% inhibition at 5 nM): 0.38; lysis of T2 cells preincubated with the peptide (HLA-A2.1+ T2 cells): repeatedly low
5 | CC(C)C[C@H](NC(=O)[C@@H](N)Cc1ccc(O)cc1)C(=O)N[C@@H](CCC(=O)O)C(=O)N1CCC[C@H]1C(=O)NCC(=O)N1CCC[C@H]1C(=O)N[C@H](C(=O)N[C@H](C(=O)N[C@@H](C)C(=O)O)[C@@H](C)O)C(C)C [G9280] | – | – | – | 11 | 8 | 11 | 3 | 2 | 7 | 43 | 11 | 0 | 0 | 99 | 37 | 9 | 5 | recognized by TIL660 and TIL1143 | binding affinity class to HLA-A2.1 (HLA-A2.1 [4]): inteivediate; number of gp100 reactive TIL recognizing the peptide (HLA-A2.1+ T2 cells; 4 gp100 reactive TIL from different patients): 2 of 4; % specific lysis at E:T = 40:1 (HLA-A2.1+ T2 cells; Exp. 2, peptide 1 ng/ml, TIL 620-1): 2%; % specific lysis at E:T = 40:1 (HLA-A2.1+ T2 cells; Exp. 2, peptide 1 ng/ml, TIL 620-2): 9%; % specific lysis at E:T = 40:1 (HLA-A2.1+ T2 cells; Exp. 2, peptide 1 ng/ml, TIL 660-2): 75%; % specific lysis at E:T = 40:1 (HLA-A2.1+ T2 cells; Exp. 2, peptide 1 ng/ml, TIL 1143): 34%; % specific lysis at E:T = 40:1 (HLA-A2.1+ T2 cells; Exp. 2, peptide 1 ng/ml, TIL 1200): 1%; % specific lysis at E:T = 40:1 (HLA-A2.1+ T2 cells; Exp. 2, peptide 1 ng/ml, TIL 1235): 2%; HLA-A2.1 binding, in words (HLA-A2.1 [3]; natural epitopes): not high affinity binders
6 | CC[C@H](C)[C@H](NC(=O)CNC(=O)[C@H](C)NC(=O)[C@H](C)N)C(=O)NCC(=O)N[C@H](C(=O)N[C@@H](CC(C)C)C(=O)N[C@H](C(=O)N[C@H](C(=O)O)C(C)C)[C@@H](C)O)[C@@H](C)CC [M9-2] | – | – | – | – | – | – | – | – | – | – | – | – | – | – | – | – | – | – | Recognition by M9-2 reactive T-cell [1]: + (+, recognized); cytokine secretion (IFN-γ, GM-CSF, TNF-α) by 10 TIL and clone A42 [5]: secreted cytokines
